How the values were obtained:
Assay in all cases: relative viability (nuclei count vs DMSO), 5 days (fraction); higher = more cells survive
[1] = compound: CN1C=C(C2=CC=CC=C21)/C=C\3/C4=C(C=CC=N4)NC3=O + COc1cccc2cc(-c3nc([C@H]4CC[C@H](C(=O)O)CC4)n4ncnc(N)c34)[nH]c12 [OSI-027] (partner 0.5 µM)
Procedure, shortened: (§1)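 Five library-drug doses in √10 steps were combined with a fixed anchor-drug dose, or a single drug was given alone, by pin tool to lung cancer cell lines in 1536-well plates the day after seeding. Nuclei were stained and counted after 5 days. Relative viability is the nuclei count in treated wells over that in vehicle wells, taken as the median of duplicate plates.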

Trametinib + Pemetrexed = compound: CC(=O)Nc1cccc(-n2c(=O)n(C3CC3)c(=O)c3c(Nc4ccc(I)cc4F)n(C)c(=O)c(C)c32)c1 [Trametinib] + Nc1nc2[nH]cc(CCc3ccc(C(=O)N[C@@H](CCC(=O)O)C(=O)O)cc3)c2c(=O)[nH]1 [Pemetrexed] (partner 0.2 µM)
Procedure, shortened: as §1

Trametinib + Pictilisib = compound: CC(=O)Nc1cccc(-n2c(=O)n(C3CC3)c(=O)c3c(Nc4ccc(I)cc4F)n(C)c(=O)c(C)c32)c1 [Trametinib] + CS(=O)(=O)N1CCN(Cc2cc3nc(-c4cccc5[nH]ncc45)nc(N4CCOCC4)c3s2)CC1 [Pictilisib] (partner 1 µM)
Procedure, shortened: as §1

[2] = compound: CN1C=C(C2=CC=CC=C21)/C=C\3/C4=C(C=CC=N4)NC3=O + N=C(N)NC(=N)NCCc1ccccc1 [Phenformin] (partner 250 µM)
Procedure, shortened: as §1

Cell Line: NCI-H1915
- relative viability ([1]; first compound 0.02 µM): 0.621
- relative viability ([1]; first compound 0.06325 µM): 0.635
- relative viability ([1]; first compound 0.2 µM): 0.665
- relative viability ([1]; first compound 0.6325 µM): 0.673
- relative viability ([1]; first compound 2 µM): 0.761
- relative viability (Trametinib + Pemetrexed; first compound 0.0025 µM): 0.492
- relative viability (Trametinib + Pemetrexed; first compound 0.007906 µM): 0.521
- relative viability (Trametinib + Pemetrexed; first compound 0.025 µM): 0.313
- relative viability (Trametinib + Pemetrexed; first compound 0.07906 µM): 0.262
- relative viability (Trametinib + Pemetrexed; first compound 0.25 µM): 0.216
- relative viability (Trametinib + Pictilisib; first compound 0.0025 µM): 0.963
- relative viability (Trametinib + Pictilisib; first compound 0.007906 µM): 0.466
- relative viability (Trametinib + Pictilisib; first compound 0.025 µM): 0.317
- relative viability (Trametinib + Pictilisib; first compound 0.07906 µM): 0.287
- relative viability (Trametinib + Pictilisib; first compound 0.25 µM): 0.24
- relative viability ([2]; first compound 0.02 µM): 0.331
- relative viability ([2]; first compound 0.06325 µM): 0.361
- relative viability ([2]; first compound 0.2 µM): 0.365
- relative viability ([2]; first compound 0.6325 µM): 0.347
- relative viability ([2]; first compound 2 µM): 0.36

Cell Line: 201T
- relative viability ([1]; first compound 0.02 µM): 0.773
- relative viability ([1]; first compound 0.06325 µM): 0.366
- relative viability ([1]; first compound 0.2 µM): 0.626
- relative viability ([1]; first compound 0.6325 µM): 0.835
- relative viability ([1]; first compound 2 µM): 0.422
- relative viability (Trametinib + Pemetrexed; first compound 0.0025 µM): 0.394
- relative viability (Trametinib + Pemetrexed; first compound 0.007906 µM): 0.362
- relative viability (Trametinib + Pemetrexed; first compound 0.025 µM): 0.338
- relative viability (Trametinib + Pemetrexed; first compound 0.07906 µM): 0.341
- relative viability (Trametinib + Pemetrexed; first compound 0.25 µM): 0.371
- relative viability (Trametinib + Pictilisib; first compound 0.0025 µM): 0.653
- relative viability (Trametinib + Pictilisib; first compound 0.007906 µM): 0.625
- relative viability (Trametinib + Pictilisib; first compound 0.025 µM): 0.542
- relative viability (Trametinib + Pictilisib; first compound 0.07906 µM): 0.71
- relative viability (Trametinib + Pictilisib; first compound 0.25 µM): 0.615
- relative viability ([2]; first compound 0.02 µM): 0.434
- relative viability ([2]; first compound 0.06325 µM): 0.451
- relative viability ([2]; first compound 0.2 µM): 0.429
- relative viability ([2]; first compound 0.6325 µM): 0.394
- relative viability ([2]; first compound 2 µM): 0.422

Cell Line: NCI-H1437
- relative viability ([1]; first compound 0.02 µM): 0.862
- relative viability ([1]; first compound 0.06325 µM): 0.897
- relative viability ([1]; first compound 0.2 µM): 0.793
- relative viability ([1]; first compound 0.6325 µM): 0.927
- relative viability ([1]; first compound 2 µM): 1.01
- relative viability (Trametinib + Pemetrexed; first compound 0.0025 µM): 0.271
- relative viability (Trametinib + Pemetrexed; first compound 0.007906 µM): 0.23
- relative viability (Trametinib + Pemetrexed; first compound 0.025 µM): 0.265
- relative viability (Trametinib + Pemetrexed; first compound 0.07906 µM): 0.203
- relative viability (Trametinib + Pemetrexed; first compound 0.25 µM): 0.192
- relative viability (Trametinib + Pictilisib; first compound 0.0025 µM): 0.151
- relative viability (Trametinib + Pictilisib; first compound 0.007906 µM): 0.144
- relative viability (Trametinib + Pictilisib; first compound 0.025 µM): 0.113
- relative viability (Trametinib + Pictilisib; first compound 0.07906 µM): 0.129
- relative viability (Trametinib + Pictilisib; first compound 0.25 µM): 0.148
- relative viability ([2]; first compound 0.02 µM): 0.307
- relative viability ([2]; first compound 0.06325 µM): 0.325
- relative viability ([2]; first compound 0.2 µM): 0.231
- relative viability ([2]; first compound 0.6325 µM): 0.28
- relative viability ([2]; first compound 2 µM): 0.267

Cell Line: A-427
- relative viability ([1]; first compound 0.02 µM): 0.575
- relative viability ([1]; first compound 0.06325 µM): 0.445
- relative viability ([1]; first compound 0.6325 µM): 0.549
- relative viability ([1]; first compound 2 µM): 0.416
- relative viability (Trametinib + Pemetrexed; first compound 0.0025 µM): 1.08
- relative viability (Trametinib + Pemetrexed; first compound 0.007906 µM): 1.1
- relative viability (Trametinib + Pemetrexed; first compound 0.025 µM): 0.977
- relative viability (Trametinib + Pemetrexed; first compound 0.07906 µM): 0.839
- relative viability (Trametinib + Pemetrexed; first compound 0.25 µM): 0.679
- relative viability (Trametinib + Pictilisib; first compound 0.0025 µM): 0.632
- relative viability (Trametinib + Pictilisib; first compound 0.007906 µM): 0.426
- relative viability (Trametinib + Pictilisib; first compound 0.025 µM): 0.2
- relative viability (Trametinib + Pictilisib; first compound 0.07906 µM): 0.184
- relative viability (Trametinib + Pictilisib; first compound 0.25 µM): 0.164
- relative viability ([2]; first compound 0.02 µM): 0.261
- relative viability ([2]; first compound 0.06325 µM): 0.309
- relative viability ([2]; first compound 0.6325 µM): 0.275
- relative viability ([2]; first compound 2 µM): 0.348
